“Also recorded” adds a separate entry of the source.
How the values were obtained:
[1] = tested on: annexin V; assay: Surface expression of annexin V in Kasumi-3 cells (flow cytometry); format: cell-based, human; settings: increasing amounts, overnight; FIG. 14A
Method: (§1) The surface expression of apoptosis marker […] or the […] protein calreticulin (CRT) was studied. Briefly, the Kasumi-3 cells were incubated overnight in the presence of vehicle only control, increasing amounts of azacitidine or venetoclax, or a combination of azacitidine and venetoclax. The following day, the cells were analyzed by flow cytometry for surface expression of annexin or calreticulin (CRT). […] In addition, except for very high concentrations of azacitidine and venetoclax (100 μM each), the apoptosis induced by azacitidine and venetoclax was not additive compared to corresponding single treatments (FIG. 14A). […] In addition, except for very high concentrations of azacitidine and venetoclax (100 μM each), the apoptosis induced by azacitidine and venetoclax was not additive compared to corresponding single treatments (FIG. 14B).

[2] = tested on: Kasumi-3 human acute myelocytic leukemia (AML) cells; assay: Phagocytosis of Kasumi-3 cells by human macrophages (flow cytometry): azacitidine and/or SIRPα-Fc-CD40L; format: cell-based; settings: 0.1 pM azacitidine overnight and/or SIRPα-Fc-CD40L for 4 hours; combination p<0.0001 vs control; FIG. 2B
Method: (§2) In another experiment, the Kasumi-3 human acute myelocytic leukemia (AML) cells were labeled with a green fluorescent tracker and treated with vehicle alone control or 0.1 pM azacitidine overnight. The following day, the tumor cells were washed in PBS and then co-cultured with human macrophages with or without the SIRPα-Fc-CD40L chimeric protein for 4 hours at 37° C. in the presence of 5% CO2. After this incubation, the cells were harvested and treated with an anti-CD11b antibody (a macrophage marker) and were analyzed using flow cytometry. Positive phagocytosis was determined by the overlap in signals of tumor (the green fluorescent tracker) and macrophage (anti-CD11b antibody staining). A phagocytosis index was calculated by setting the maximum phagocytosis value to 1, and then normalizing all other replicates accordingly. The phagocytosis index was plotted for the indicated treatments.

[3] = tested on: calreticulin (CRT); assay: Surface expression of calreticulin in Kasumi-3 cells (flow cytometry), Example 19; format: cell-based, human; settings: increasing amounts, overnight; FIG. 14B
Method: as §1

[4] = tested on: K652 human chronic myelogenous leukemia (CML) cells; assay: Phagocytosis of K652 cells by human macrophages (flow cytometry): azacitidine and/or SIRPα-Fc-CD40L; format: cell-based; settings: 0.1 μM azacitidine overnight and/or SIRPα-Fc-CD40L for 4 hours; combination p<0.001 vs control; FIG. 2A
Method: as §2, with “Briefly,” for “In another experiment,”, “K652” for “Kasumi-3”, “chronic myelogenous” for “acute myelocytic”, “(CML)” for “(AML)”, “μM” for “pM”

[5] = tested on: CD47; assay: Surface expression of CD47 in K652 cells (flow cytometry); format: cell-based, human; settings: 1 μM, overnight; FIG. 11A
Method: (§3) Briefly, the K652 human chronic myelogenous leukemia cells were incubated overnight in the presence of vehicle only control, 1 μM azacitidine or 1 μM pevonedistat. The following day, the K652 cells were analyzed by flow cytometry for surface expression of CD47 or calreticulin (CRT).

[6] = tested on: A20 lymphoma cells; assay: In vivo anti-tumor efficacy, A20 lymphoma cell allograft mouse model; set-up: species or system BALB/C mice; settings: day 12; 1 mg/kg azacitidine (days 0-4), 4 mg/kg pevonedistat (MLN4924) (days 0-3), 200 μg SIRPα-Fc-CD40L (mSIRPα-Fc-CD40L; days 0, 3, 6), intraperitoneal; FIG. 13C
Method: The efficacy of the SIRPα-Fc-CD40L chimeric protein was evaluated in combination with an immune checkpoint inhibitor. Towards that, the ability of an anti-PD-L1 antibody and chimeric proteins to target and reduce tumor volume in vivo was determined. Briefly, BALB/C mice were inoculated with 1×10^6 A20 lymphoma cells. When tumor volumes were approximately 75 to 80 mm^3 (day 0), the mice were randomly distributed in the following treatment groups: (1) vehicle only control, (2) 200 μg of the mouse SIRPα-Fc-CD40L chimeric protein alone, (3) 100 μg an anti-PD-L1 antibody (clone 10F.9G2), and (4) a combination 200 μg of the SIRPα-Fc-CD40L chimeric protein and 100 μg the anti-PD-L1 antibody. […] Tumors were measured with electronic calipers on day 12 and plotted using the GraphPad Prism software. […]
The efficacy of the SIRPα-Fc-CD40L chimeric protein was evaluated in combination with an antimetabolite/DNA synthesis inhibitor. Towards that, the ability of cytarabine and the chimeric protein to target and reduce tumor volume in vivo was determined. […] Tumors were measured with electronic calipers on day 12 and plotted using the GraphPad Prism software. […]
The efficacy of the SIRPα-Fc-CD40L chimeric protein was evaluated in combination with a hypomethylating agent/an epigenetic regulator and/or a protein neddylation inhibitor. […]

[7] = tested on: Kasumi-3 AML cells; assay: Phagocytosis of Kasumi-3 AML cells by human macrophages (flow cytometry): azacitidine and/or venetoclax and/or SIRPα-Fc-CD40L; format: cell-based; settings: 50 μg/ml SIRPα-Fc-CD40L (p<0.05), 10 μM azacitidine (p<0.0001), 1 μM venetoclax (p<0.05); each combination p<0.0001; 4 hours; FIG. 14C
Method: Briefly, the Kasumi-3 AML cells were labeled with a green fluorescent tracker and co-cultured with human macrophages and treated with (1) vehicle alone control, (2) 50 μg/ml of the SIRPα-Fc-CD40L chimeric protein, (3) 10 μM azacitidine, (4) 50 μg/ml of the SIRPα-Fc-CD40L chimeric protein+10 μM azacitidine, (5) 1 μM venetoclax, (6) 50 μg/ml of the SIRPα-Fc-CD40L chimeric protein+1 μM venetoclax, or (7) 50 μg/ml of the SIRPα-Fc-CD40L chimeric protein+1 μM venetoclax+10 μM azacitidine. The cells were incubated at 37° C. in the presence of 5% CO2 for 4 hours. After this incubation, the cells were harvested and treated with an anti-CD11b antibody (a macrophage marker) and were analyzed using flow cytometry. Positive phagocytosis was determined by the overlap in signals of tumor (the green fluorescent tracker) and macrophage (anti-CD11b antibody staining). A phagocytosis index was calculated by setting the maximum phagocytosis value to 1, and then normalizing all other replicates accordingly. The phagocytosis index was plotted for the indicated treatments.

[8] = tested on: calreticulin (CRT); assay: Surface expression of calreticulin in K652 cells (flow cytometry); format: cell-based, human; settings: 1 μM, overnight; FIG. 11C
Method: as §3

[9] = tested on: calreticulin (CRT); assay: Surface expression of calreticulin in Kasumi-3 cells (flow cytometry), Example 17; format: cell-based, human; settings: 1 μM, overnight; FIG. 11D
Method: (§4) In another experiment, the Kasumi-3 human acute myelocytic leukemia (AML) cells were incubated overnight in the presence of vehicle only control, 1 μM pevonedistat (MLN4924) or […]. The following day, the Kasumi-3 cells were analyzed by flow cytometry for surface expression of CD47 or calreticulin (CRT).

[10] = tested on: CD47; assay: Surface expression of CD47 in Kasumi-3 cells (flow cytometry); format: cell-based, human; settings: 1 μM, overnight; FIG. 11B
Method: as §4

[11] = tested on: calreticulin (CRT); assay: Surface expression of calreticulin in Kasumi-1 cells (flow cytometry); format: cell-based, human; settings: 15 μM or 50 μM APR-246, overnight; FIG. 12B
Method: (§5) Briefly, the Kasumi-1 human acute myelocytic leukemia (AML) cells were incubated overnight in the presence of vehicle only control, 15 μM APR-246, or 50 μM APR-246. The following day, the Kasumi-1 cells were analyzed by flow cytometry for surface expression of p53 and calreticulin (CRT).

[12] = tested on: p53; assay: Surface expression of p53 in Kasumi-1 cells (flow cytometry); format: cell-based, human; settings: 15 μM or 50 μM APR-246, overnight; FIG. 12A
Method: as §5

Nc1ncn([C@@H]2O[C@H](CO)[C@@H](O)[C@H]2O)c(=O)n1 [azacitidine] was tested, and the “expression of annexin V (apoptosis marker) compared to the vehicle only-treated Kasumi-3 cells” value [1] was “induced the expression of annexin V in Kasumi-3 cells in a dose-dependent manner; also recorded: increased the expression”, the “level of phagocytosis (phagocytosis index) compared to the control Kasumi-3 cells” value [2] was “slight increase in the level of phagocytosis” and the “expression of calreticulin compared to the vehicle only-treated Kasumi-3 cells” value [3] was “induced the expression of calreticulin in Kasumi-3 cells in a dose-dependent manner; also recorded: increased the expression”. For the same compound, the “level of phagocytosis (phagocytosis index) compared to the control K652 cells” value [4] was “increased level of phagocytosis”, the “surface expression of CD47 compared to the vehicle only-treated K652 cells” value [5] was “induced the expression” and the tumor size [6] was “reduction in tumor size”. For the same compound, the “level of phagocytosis (phagocytosis index) compared to the vehicle only-treated Kasumi-3 cells” value [7] was “increased level of phagocytosis” and the “surface expression of calreticulin, a pro-phagocytic marker, compared to the vehicle only-treated K652 cells” value [8] was “induced the expression”.
In the case of NS(=O)(=O)OC[C@@H]1C[C@@H](n2ccc3c(N[C@H]4CCc5ccccc54)ncnc32)C[C@@H]1O [pevonedistat (MLN4924), pevonedistat], the “surface expression of calreticulin, a pro-phagocytic marker, compared to the vehicle only-treated Kasumi-3 cells” value [9] is reported as “induced the expression”, the “surface expression of CD47 compared to the vehicle only-treated K652 cells” value [5] is reported as “induced the expression” and the tumor size [6] is reported as “reduction in tumor size”. The “surface expression of CD47 compared to the vehicle only-treated Kasumi-3 cells” value [10] was “induced the expression” and the “surface expression of calreticulin, a pro-phagocytic marker, compared to the vehicle only-treated K652 cells” value [8] was “induced the expression”.
In the case of COCC1(CO)C(=O)C2CCN1CC2 (stereo not drawn) [APR-246], the “expression of calreticulin compared to the vehicle only-treated Kasumi-1 cells” value [11] is reported as “induced the expression” and the “expression of p53 compared to the vehicle only-treated Kasumi-1 cells” value [12] is reported as “dose-dependent induction”.
